Assay results: US6362369B1, “Phthalic acid diamide derivatives fluorine-containing aniline compounds as starting material, agricultural and horticultural insecticides, and a method for application of the insecticides” (Nihon Nohyaku Co., Ltd., priority 1997, dated 2002)

What was measured:
[1] = tested on: common cutworm (Spodoptera Litura); assay: Insecticidal effect on common cutworm (Test Example 2); type: in vivo; conditions: 500 ppm, 25° C.; for Insecticidal effect (Test Example 2), judged from mortality / Insecticidal effect on common cutworm (Test Example 2), judged grade: cabbage leaf dip; for Insecticidal effect (Test Example 2), judged from mortality: 8 days after inoculation; for Insecticidal effect, Test Example 2: cabbage leaf immersed; for Insecticidal effect, Test Example 2 / Insecticidal effect on common cutworm (Test Example 2), judged grade: eight days after inoculation; for Insecticidal effect on common cutworm (Test Example 2), judged grade: second-instar larvae
Description: Insecticidal effect on common cutworm (Spodoptera Litura)
After air-drying, it was placed in a plastic Petri dish with a diameter of 9 cm and inoculated with second-instar larvae of common cutworm, after which the dish was closed and then allowed to stand in a room thermostated at 25° C. Eight days after the inoculation, the dead and alive were counted. The mortality was calculated according to the following equation and the insecticidal effect was judged according to the criterion shown in Test Example 1. The test was carried out with triplicate groups of 10 insects. [formula]

[2] = tested on: diamondback moth (Plutella xylostella); assay: Insecticidal effect on diamondback moth (Test Example 1); type: in vivo; conditions: for Insecticidal effect (Test Example 1), judged from mortality / Insecticidal effect, Test Example 1: diamondback moth; for Insecticidal effect (Test Example 1), judged from mortality: judged by the criterion of Test Example 1; for Insecticidal effect on diamondback moth (Test Example 1), judged grade: mortality judged according to the criterion shown in Test Example 1
In short: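 Eggs laid by adult moths on Chinese cabbage seedlings, which were immersed in test solution, air-dried and kept at 25 °C. Hatched insects counted 6 days after immersion and mortality calculated, with effect graded by criterion; triplicate groups of 10 insects.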

[3] = second-instar larvae of common cutworm
[4] = judged by the mortality criterion of Test Example 1
[5] = common cutworm second-instar larvae
[6] = mortality judged by criterion of Test Example 1

Cc1cc(C(F)(F)C(F)(F)F)ccc1N(C)C(=O)c1cccc(Cl)c1C(=O)NC(C)c1ccccc1 (stereo not shown) [compound 1554]
Insecticidal effect (Test Example 2), judged from mortality [1, 3]: A (100) | Insecticidal effect (Test Example 1), judged from mortality [2]: A (100)

CSc1cc(C(F)(F)C(F)(F)F)ccc1NC(=O)c1cccc(I)c1C(=O)NC(C)C [compound 1700]
Insecticidal effect (Test Example 2), judged from mortality [1, 3]: D (79-50) | Insecticidal effect (Test Example 1), judged from mortality [2]: A (100)

Cc1cc(OC(F)F)c(Cl)cc1NC(=O)c1c(Cl)cccc1C(=O)NC(C)C [compound 245]
Insecticidal effect, Test Example 2 [1, 3]: D (79-50) | Insecticidal effect, Test Example 1 [2, 4]: A (100)

Cc1cc2c(cc1NC(=O)c1cccc(Cl)c1C(=O)NC(C)C)OC(F)(F)C(F)O2 (racemic) [compound 1597]
Insecticidal effect (Test Example 2), judged from mortality [1, 3]: A (100) | Insecticidal effect (Test Example 1), judged from mortality [2]: A (100)

CC(C)NC(=O)c1cccc(F)c1C(=O)Nc1ccc(C(F)(F)C(F)(F)C(F)(F)F)cc1 [compound 535]
Insecticidal effect on common cutworm (Test Example 2), judged grade [1]: A (100) | Insecticidal effect on diamondback moth (Test Example 1), judged grade [2]: A (100)

C#CCNC(=O)c1c(C(=O)Nc2cc(Cl)ccc2C)cccc1[N+](=O)[O-] [compound 869]
Insecticidal effect on common cutworm (Test Example 2), judged grade [1]: D (79-50) | Insecticidal effect on diamondback moth (Test Example 1), judged grade [2]: A (100)

CCN(CC)C(=O)c1c(OC(F)(F)F)cccc1C(=O)Nc1ccc(OC(F)(F)F)cc1C [compound 1235]
Insecticidal effect, Test Example 2 [1, 5]: D (79-50) | Insecticidal effect, Test Example 1 [2, 6]: A (100)

COc1cc(C(F)(F)C(F)(F)F)ccc1NC(=O)c1cccc(I)c1C(=O)NC(C)(C)C [compound 1662]
Insecticidal effect (Test Example 2), judged from mortality [1, 3]: A (100) | Insecticidal effect (Test Example 1), judged from mortality [2]: A (100)

CC(C)NC(=O)c1ccccc1C(=O)Nc1ccc(SC(F)(F)C(F)F)cc1 [compound 34]
Insecticidal effect, Test Example 2 [1, 3]: C (89-80) | Insecticidal effect, Test Example 1 [2, 4]: A (100)

CC(C)NC(=O)c1ccccc1C(=O)Nc1ccc([N+](=O)[O-])cc1 [compound 22]
Insecticidal effect, Test Example 2 [1, 3]: D (79-50) | Insecticidal effect, Test Example 1 [2, 4]: A (100)

Cc1cc(C(F)(C(F)(F)F)C(F)(F)F)ccc1NC(=O)c1cccc(I)c1C(=O)NC(C)(C)C [compound 1668]
Insecticidal effect (Test Example 2), judged from mortality [1, 3]: A (100) | Insecticidal effect (Test Example 1), judged from mortality [2]: A (100)

Cc1cc2c(cc1NC(=O)c1cccc(I)c1C(=O)NC(C)(C)C)OC(F)(F)C(F)O2 (racemic) [compound 1599]
Insecticidal effect (Test Example 2), judged from mortality [1, 3]: A (100) | Insecticidal effect (Test Example 1), judged from mortality [2]: A (100)

CC(C)NC(=O)c1c(I)cccc1C(=O)Nc1cc2c(cc1Cl)OC(F)C(F)(F)O2 (racemic) [compound 1600]
Insecticidal effect (Test Example 2), judged from mortality [1, 3]: A (100) | Insecticidal effect (Test Example 1), judged from mortality [2]: A (100)

CC(C)(C)NC(=O)c1ccccc1C(=O)Nc1ccc(C(O)(C(F)(F)F)C(F)(F)F)cc1 [compound 1052]
Insecticidal effect, Test Example 2 [1, 5]: A (100) | Insecticidal effect, Test Example 1 [2, 6]: A (100)

CC(C)NC(=O)c1c(C(=O)Nc2c(F)c(F)c(F)c(F)c2F)cccc1[N+](=O)[O-] [compound 646]
Insecticidal effect on common cutworm (Test Example 2), judged grade [1]: D (79-50) | Insecticidal effect on diamondback moth (Test Example 1), judged grade [2]: A (100)

CC(C)NC(=O)c1c(I)cccc1C(=O)Nc1cc2c(cc1F)OC(F)(F)O2 [compound 1595]
Insecticidal effect (Test Example 2), judged from mortality [1, 3]: A (100) | Insecticidal effect (Test Example 1), judged from mortality [2]: A (100)

CC(C)NC(=O)c1c(I)cccc1C(=O)Nc1ccc(C(F)(C(F)(F)F)C(F)(F)F)cc1F [compound 1669]
Insecticidal effect (Test Example 2), judged from mortality [1, 3]: A (100) | Insecticidal effect (Test Example 1), judged from mortality [2]: A (100)

Cc1cc(C(F)(F)C(F)(F)F)ccc1NC(=O)c1cccc(I)c1C(=O)N[C@@H](C)CBr [compound 1606]
Insecticidal effect (Test Example 2), judged from mortality [1, 3]: A (100) | Insecticidal effect (Test Example 1), judged from mortality [2]: A (100)

CC(C)NC(=O)c1c(C(=O)Nc2ccc(OC(F)F)cc2C(F)(F)F)cccc1[N+](=O)[O-] [compound 692]
Insecticidal effect on common cutworm (Test Example 2), judged grade [1]: D (79-50) | Insecticidal effect on diamondback moth (Test Example 1), judged grade [2]: A (100)

Cc1cc(OC(F)(F)C(F)OC(F)(F)F)ccc1NC(=O)c1c(F)cccc1C(=O)NC(C)C (stereo not shown) [compound 570]
Insecticidal effect on common cutworm (Test Example 2), judged grade [1]: A (100) | Insecticidal effect on diamondback moth (Test Example 1), judged grade [2]: A (100)

CC(C)(C)NC(=O)c1c(I)cccc1C(=O)Nc1ccc(C(F)(C(F)(F)F)C(F)(F)F)cc1F [compound 1670]
Insecticidal effect (Test Example 2), judged from mortality [1, 3]: A (100) | Insecticidal effect (Test Example 1), judged from mortality [2]: A (100)

Cc1cc(C(F)(C(F)(F)F)C(F)(F)F)ccc1NC(=O)c1cccc(I)c1C(=O)NC(C)C [compound 1667]
Insecticidal effect (Test Example 2), judged from mortality [1, 3]: A (100) | Insecticidal effect (Test Example 1), judged from mortality [2]: A (100)

Cc1cc(Oc2c(F)c(F)c(F)c(F)c2F)ccc1NC(=O)c1cccc([N+](=O)[O-])c1C(=O)NC(C)C [compound 725]
Insecticidal effect on common cutworm (Test Example 2), judged grade [1]: A (100) | Insecticidal effect on diamondback moth (Test Example 1), judged grade [2]: A (100)

O=C(Nc1ccc(C(F)(F)C(F)(F)F)cc1Cl)c1cccc(Cl)c1C(=O)NCc1ccccc1 [compound 1487]
Insecticidal effect (Test Example 2), judged from mortality [1, 3]: A (100) | Insecticidal effect (Test Example 1), judged from mortality [2]: A (100)

Cc1ccc(Cl)cc1NC(=O)c1c(Cl)cccc1C(=O)NC(C)C [compound 215]
Insecticidal effect, Test Example 2 [1, 3]: D (79-50) | Insecticidal effect, Test Example 1 [2, 4]: A (100)

CC(C)NC(=O)c1c(I)cccc1C(=O)Nc1ccc2oc(C(F)(F)F)nc2c1Cl [compound 1682]
Insecticidal effect (Test Example 2), judged from mortality [1, 3]: A (100) | Insecticidal effect (Test Example 1), judged from mortality [2]: A (100)

CCN(CC)C(=O)c1c(C(=O)Nc2ccc(C(F)(F)C(F)(F)F)cc2C)cccc1C(F)(F)F [compound 1186]
Insecticidal effect, Test Example 2 [1, 5]: A (100) | Insecticidal effect, Test Example 1 [2, 6]: A (100)

CC(C)NC(=O)c1cccc(I)c1C(=O)Nc1ccc(SC(F)(F)C(F)(F)C(F)(F)F)cc1 [compound 424]
Insecticidal effect, Test Example 2 [1, 3]: A (100) | Insecticidal effect, Test Example 1 [2, 4]: A (100)

CCN(CC)C(=O)c1ccccc1C(=O)Nc1ccc(C(F)(F)F)cc1 [compound 12]
Insecticidal effect, Test Example 2 [1, 3]: D (79-50) | Insecticidal effect, Test Example 1 [2, 4]: A (100)

Cc1cc(OC(F)(F)F)ccc1NC(=O)c1cccc(OC(F)(F)F)c1C(=O)NC(C)C [compound 1233]
Insecticidal effect, Test Example 2 [1, 5]: A (100) | Insecticidal effect, Test Example 1 [2, 6]: A (100)

O=C(Nc1ccc(C(F)(F)C(F)(F)F)cc1F)c1cccc(Cl)c1C(=O)NCc1ccccc1 [compound 1486]
Insecticidal effect (Test Example 2), judged from mortality [1, 3]: A (100) | Insecticidal effect (Test Example 1), judged from mortality [2]: A (100)

Cc1cc(C(F)(F)C(F)(F)F)ccc1NC(=O)c1cccc(C#N)c1C(=O)NC(C)C [compound 1245]
Insecticidal effect, Test Example 2 [1, 5]: A (100) | Insecticidal effect, Test Example 1 [2, 6]: A (100)

O=C(Nc1ccc(C(F)(F)F)cc1)c1ccccc1C(=O)N1CCCC1 [compound 881]
Insecticidal effect on common cutworm (Test Example 2), judged grade [1]: D (79-50) | Insecticidal effect on diamondback moth (Test Example 1), judged grade [2]: A (100)

CC(C)(C)NC(=O)c1c(I)cccc1C(=O)Nc1cc2c(cc1F)OC(F)(F)O2 [compound 1596]
Insecticidal effect (Test Example 2), judged from mortality [1, 3]: A (100) | Insecticidal effect (Test Example 1), judged from mortality [2]: A (100)

Cc1cc(OC(F)F)ccc1NC(=O)c1cc(Cl)ccc1C(=O)NC(C)C [compound 193]
Insecticidal effect, Test Example 2 [1, 3]: D (79-50) | Insecticidal effect, Test Example 1 [2, 4]: A (100)

CC(C)NC(=O)c1c(C(=O)Nc2cccc(Cl)c2Cl)cccc1[N+](=O)[O-] [compound 584]
Insecticidal effect on common cutworm (Test Example 2), judged grade [1]: D (79-50) | Insecticidal effect on diamondback moth (Test Example 1), judged grade [2]: A (100)

Cc1cc(C(F)(F)C(F)(F)F)ccc1NC(=O)c1cccc(C(F)(F)F)c1C(=O)NC(C)C [compound 1184]
Insecticidal effect, Test Example 2 [1, 5]: A (100) | Insecticidal effect, Test Example 1 [2, 6]: A (100)

CC(C)NC(=O)c1c(Cl)cccc1C(=O)Nc1ccc(OC(F)F)c(C(F)(F)F)c1 [compound 164]
Insecticidal effect, Test Example 2 [1, 3]: A (100) | Insecticidal effect, Test Example 1 [2, 4]: A (100)

Cc1cc(Cl)ccc1NC(=O)c1c(Cl)cccc1C(=O)NC(C)(C)C [compound 938]
Insecticidal effect on common cutworm (Test Example 2), judged grade [1]: A (100) | Insecticidal effect on diamondback moth (Test Example 1), judged grade [2]: A (100)

CSc1cc(C(F)(C(F)(F)F)C(F)(F)F)ccc1NC(=O)c1cccc(I)c1C(=O)NC(C)(C)C [compound 1672]
Insecticidal effect (Test Example 2), judged from mortality [1, 3]: A (100) | Insecticidal effect (Test Example 1), judged from mortality [2]: A (100)

Cc1ccc(NC(=O)c2c(Br)cccc2C(=O)NC(C)C)c(C)c1Cl [compound 309]
Insecticidal effect, Test Example 2 [1, 3]: A (100) | Insecticidal effect, Test Example 1 [2, 4]: A (100)

CC(C)NC(=O)c1c(I)cccc1C(=O)Nc1ccc(OC(F)(F)F)cc1F [compound 1188]
Insecticidal effect, Test Example 2 [1, 5]: A (100) | Insecticidal effect, Test Example 1 [2, 6]: A (100)

CC(C)NC(=O)c1c(I)cccc1C(=O)Nc1ccc(C(F)(C(F)(F)F)C(F)(F)F)cc1C(C)C [compound 1691]
Insecticidal effect (Test Example 2), judged from mortality [1, 3]: A (100) | Insecticidal effect (Test Example 1), judged from mortality [2]: A (100)

Cc1ccc(Cl)cc1NC(=O)c1ccccc1C(=O)NC(C)(C)C [compound 841]
Insecticidal effect on common cutworm (Test Example 2), judged grade [1]: D (79-50) | Insecticidal effect on diamondback moth (Test Example 1), judged grade [2]: A (100)
